Measured values from patent EP2892896B1 (Bristol-Myers Squibb Company, priority 2012, dated 2014).

target: T1, human melanin concentrating hormone receptor (MCHR1) (Homo sapiens, UniProt Q99705, A5T/E4Q); experiment: Radioligand binding assay for assessment of MCHR1 activity; conditions: membranes from HEK-293 cells expressing a mutated (E4Q, A5T) hMCHR1 receptor; competition with 0.06 - 0.1 nM [Phe13, [125I]Tyr19]-MCH; 90 min
T1 construct: expressed in transfected cells; host or cells: HEK-293 (stably transfected), membranes
T1 sequence (Q99705 whole entry E4Q/A5T): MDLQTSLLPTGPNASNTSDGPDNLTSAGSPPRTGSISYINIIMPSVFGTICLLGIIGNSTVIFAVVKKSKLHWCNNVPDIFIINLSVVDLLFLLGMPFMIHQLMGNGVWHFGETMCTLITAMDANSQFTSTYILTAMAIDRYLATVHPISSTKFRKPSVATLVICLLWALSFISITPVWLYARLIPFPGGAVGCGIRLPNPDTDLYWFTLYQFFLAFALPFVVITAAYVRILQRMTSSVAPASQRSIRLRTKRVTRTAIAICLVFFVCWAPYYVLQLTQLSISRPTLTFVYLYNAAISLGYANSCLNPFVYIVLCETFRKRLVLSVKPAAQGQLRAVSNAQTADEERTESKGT
Procedure: Radioligand Binding Assay for Assessment of MCHR1 Activity
An in vitro binding assay was used to determine the compound Ki value or ability to antagonize binding of a peptide agonist to the human melanin concentrating hormone receptor (MCHR1). […] Binding experiments were carried out with 0.5-1.0 µg of membrane protein incubated in a total of 0.2 mL in 25 mM HEPES (pH 7.4) with 10 mM MgCl2, 2 mM EGTA, and 0.1% BSA (Binding Buffer) for 90 min. For competition binding assays, reactions were carried out in the presence of with 0.06 - 0.1 nM [Phe^13, [^125I]Tyr^19]-MCH and increasing concentrations of unlabeled test molecules. […] Filters were dried, 0.05 mL MicroScint 20 was added to each well and radioactivity was subsequently quantified by scintillation counting on a TOPCOUNT® microplate scintillation counter (Packard). Inhibitory constants were determined by nonlinear least squares analysis using a four parameter logistic equation.

Compound	Ki [nM]
COc1cc(N2CCC(Oc3ccc(OC4CC4)cc3)C2=O)ccc1OCC(C)(C)O (stereo not drawn) [Example 23]	44
Cc1cc(N2CCC(Oc3ccc(Br)nc3)C2=O)ccc1OCC(C)(C)O (stereo not drawn) [Example 87]	7000
COc1cc(N2CCC(Oc3ccc(-c4ccccc4)cc3)C2=O)ccc1OCC1(O)CCS(=O)(=O)CC1 (stereo not drawn) [Example 57]	2
COc1cc(N2CCC(Oc3ccc(Br)c(Cl)c3)C2=O)ccc1OCC(C)(C)O (stereo not drawn) [Example 41]	522
COc1cc(N2CCC(Oc3ccc(-c4ccccc4)c(F)c3)C2=O)ccc1OCC(C)(C)O (stereo not drawn) [Example 30]	12
CCS(=O)(=O)C[C@@H](O)COc1ccc(N2CCC(Oc3ccc(C4CC4)cc3)C2=O)cc1OC (stereo partly drawn) [Example 52]	16
Cc1cc(N2CCC(Oc3ccc(C(F)(F)F)cc3)C2=O)ccc1OCC(C)(C)O (stereo not drawn) [Example 76]	26
CS(=O)(=O)CCOc1ccc(N2CCC(Oc3ccc(-c4ccccc4)cc3)C2=O)cc1OCCF (stereo not drawn) [Example 72]	7
COc1cc(N2CCC(Oc3ccc(OC(F)(F)F)cc3)C2=O)ccc1OCC(C)(C)O (stereo not drawn) [Example 14]	134
Cc1cc(N2CCC(Oc3ccc(-c4ccc(F)cc4)cc3)C2=O)ccc1OC[C@H](O)CS(C)(=O)=O (stereo partly drawn) [Example 96]	22
COc1cc(N2CCC(Oc3ccc(-c4ccccc4)nc3)C2=O)ccc1OCC(C)(C)O (stereo not drawn) [Example 35]	81
CCS(=O)(=O)C[C@@H](O)COc1ccc(N2CCC(Oc3ccc(OC(F)(F)F)cc3)C2=O)cc1OC (stereo partly drawn) [Example 51]	78
Cc1cc(N2CCC(Oc3ccc(N4CCOCC4)cc3)C2=O)ccc1OCC(C)(C)O (stereo not drawn) [Example 33]	903
COc1cc(N2CCC(Oc3ccc(-c4ccccc4OC)cc3)C2=O)ccc1OCC(C)(C)O (stereo not drawn) [Example 27]	238
CCS(=O)(=O)C[C@@H](O)COc1ccc(N2CCC(Oc3ccc(OC(F)(F)F)cc3)C2=O)cc1C (stereo partly drawn) [Example 94]	714
COc1cc(N2CC[C@H](Oc3ccc(C(F)(F)F)cc3)C2=O)ccc1OCC(C)(C)O (single isomer, unassigned) [Example 10]	6000
Cc1cc(N2CC=C(Oc3ccc(OC(F)(F)F)cc3)C2=O)ccc1OCC(C)(C)O [Example 117]	25
COc1cc(N2CC=C(Oc3ccc(C4CC4)cc3)C2=O)ccc1OCC(C)(O)CO (stereo not drawn) [Example 119]	4
COc1cc(N2CC[C@@H](Oc3ccc(OC(F)(F)F)cc3)C2=O)ccc1OCC(C)(C)O [Example 15]	11
COc1cc(N2CCC(Oc3ccc(-c4ccccc4F)cc3)C2=O)ccc1OCC(C)(C)O (stereo not drawn) [Example 24, 3-(2'-Fluorobiphenyl-4-yloxy)-1-(4-(2-hydroxy-2-methylpropoxy)-3-methoxyphenyl)pyrrolidin-2-one]	9

Compound	Ki [nM]
COc1cc(N2CCC(Oc3ccc(C4CC4)cc3)C2=O)ccc1OC[C@H](O)CS(C)(=O)=O (stereo partly drawn) [Example 60]	17
COc1ccc(N2CCC(Oc3ccc(-c4ccccc4)cc3)C2=O)cc1OC (stereo not drawn) [Example 43]	19
Cc1cc(N2CCC(Oc3ccc(-c4cccc(F)c4)cc3)C2=O)ccc1OCCS(C)(=O)=O (stereo not drawn) [Example 108]	5
Cc1cc(N2CCC(Oc3ccc(-c4ccccc4)cc3)C2=O)ccc1OCCS(C)(=O)=O (stereo not drawn) [Example 104]	1
COc1cc(N2CCC(Oc3cccc(C(F)(F)F)c3)C2=O)ccc1OCC(C)(C)O (stereo not drawn) [Example 7]	6000
Cc1cc(N2CCC(Oc3ccc(-c4ccccc4)nc3)C2=O)ccc1OCC(C)(C)O (stereo not drawn) [Example 88]	45
COc1cc(N2CCC(Oc3ccc(-c4ccccc4)cc3)C2=O)ccc1OCC1(O)CC(F)(F)C1 (stereo not drawn) [Example 47]	7
Cc1cc(N2CCC(Oc3ccc(C(F)(F)F)cc3)C2=O)ccc1OCCS(C)(=O)=O (stereo not drawn) [Example 112]	31
COc1cc(N2CCC(Oc3ccc(-c4ccccc4)cc3)C2=O)ccc1OCCS(C)(=O)=O (stereo not drawn) [Example 66]	2
Cc1cc(N2CCC(Oc3ccc(OC(F)(F)F)cc3)C2=O)ccc1OCCS(C)(=O)=O (stereo not drawn) [Example 103]	40
COc1cc(N2CC[C@@H](Oc3ccc(-c4ccccc4)cc3)C2=O)ccc1OCC(C)(C)O [Example 21]	2
COc1cc(N2CCC(Oc3ccc(OC(F)(F)F)cc3)C2=O)ccc1OC[C@H](O)CS(C)(=O)=O (stereo partly drawn) [Example 61]	65
COc1cc(N2CCC(Oc3ccc(-c4ccccc4C(F)(F)F)cc3)C2=O)ccc1OCC(C)(C)O (stereo not drawn) [Example 28]	956
COc1cc(N2CCC(Oc3ccc(-c4ccccc4)cc3)C2=O)ccc1OC[C@H](O)CS(C)(=O)=O (stereo partly drawn) [Example 58, 3-(Biphenyl-4-yloxy)-1-(4-((S)-2-hydroxy-3-(methylsulfonyl)propoxy)-3-methoxyphenyl)pyrrolidin-2-one]	9
COc1cc(N2CCC(Oc3ccc(Cl)cc3)C2=O)ccc1OCC(C)(C)O (stereo not drawn) [Example 3]	2060
Cc1cc(N2CCC(Oc3ccc(OC(F)(F)F)cc3)C2=O)ccc1OCC(C)(C)O (stereo not drawn) [Example 77]	15
CCS(=O)(=O)C[C@@H](O)COc1ccc(N2CCC(Oc3ccc(-c4ccc(F)cc4)cc3)C2=O)cc1OC (stereo partly drawn) [Example 54]	21
COc1cc(N2CCC(Oc3ccc(-n4cccc4)cc3)C2=O)ccc1OCC(C)(C)O (stereo not drawn) [Example 38]	5
COc1cc(N2CCC(Oc3ccc(-c4cccc(F)c4)cc3)C2=O)ccc1OCCS(C)(=O)=O (stereo not drawn) [Example 68]	5
COc1cc(N2CCC(Oc3ccc(-c4ccncc4Cl)cc3)C2=O)ccc1OCC(C)(C)O (stereo not drawn) [Example 32]	634

Compound	Ki [nM]
CCS(=O)(=O)C[C@@H](O)COc1ccc(N2CCC(Oc3ccc(-c4cccc(F)c4)cc3)C2=O)cc1OC (stereo partly drawn) [Example 55]	38
COc1cc(N2CCC(Oc3ccc(C4CC4)cc3)C2=O)ccc1OCCS(=O)(=O)CC(C)(C)O (stereo not drawn) [Example 74]	64
COc1cc(N2CCC(Oc3ccc(C4CC4)cc3)C2=O)ccc1OCCS(C)(=O)=O (stereo not drawn) [Example 70]	7
COc1cc(N2CC=C(Oc3ccc(C4CC4)cc3)C2=O)ccc1OC[C@H](O)C1CC1 [Example 121]	2
Cc1cc(N2CC[C@@H](Oc3ccc(-c4ccccc4)cc3)C2=O)ccc1OCCS(C)(=O)=O (single isomer, unassigned) [Example 106]	636
COc1cc(N2CCC(Oc3ccc(C(F)(F)F)cc3)C2=O)ccc1OCC(C)(C)O (stereo not drawn) [Example 8]	34
COc1cc(N2CCC(Oc3ccc(C4CC4)cc3)C2=O)ccc1OC[C@@H](O)CS(C)(=O)=O (stereo partly drawn) [Example 64]	32
Cc1cc(N2CC[C@@H](Oc3ccc(OC(F)(F)F)cc3)C2=O)ccc1OCC(C)(C)O [Example 79]	11
Cc1cc(N2CCC(Oc3ccc(C(F)(F)F)cn3)C2=O)ccc1OCC(C)(C)O (stereo not drawn) [Example 86]	5000
COc1cc(N2CCC(Oc3ccc(-c4ccccc4C)cc3)C2=O)ccc1OCC(C)(C)O (stereo not drawn) [Example 26]	81
COc1cc(N2CCC(Oc3cccc(OC(F)(F)F)c3)C2=O)ccc1OCC(C)(C)O (stereo not drawn) [Example 11]	5000
CCS(=O)(=O)C[C@@H](O)COc1ccc(N2CCC(Oc3ccc(-c4ccc(F)cc4)cc3)C2=O)cc1C (stereo partly drawn) [Example 92]	22
COc1cc(N2CC[C@@H](Oc3ccc(C(F)(F)F)cc3)C2=O)ccc1OCC(C)(C)O (single isomer, unassigned) [Example 9]	23
COc1cc(N2CCC(Oc3ccc(-c4ccccc4)c(Cl)c3)C2=O)ccc1OCC(C)(C)O (stereo not drawn) [Example 29]	87
COc1cc(N2CCC(Oc3ccc(OC(F)(F)F)cc3Cl)C2=O)ccc1OCC(C)(C)O (stereo not drawn) [Example 17]	402
COc1cc(N2CCC(Oc3ccc(Br)c(F)c3)C2=O)ccc1OCC(C)(C)O (stereo not drawn) [Example 42]	821
Cc1cc(N2CCC(Oc3ccc(-c4ccncc4)cc3)C2=O)ccc1OCC(C)(C)O (stereo not drawn) [Example 89]	37
Cc1cc(N2CCC(Oc3ccc(-c4ccccc4)cc3)C2=O)ccc1OCC[S+](C)[O-] (stereo not drawn) [Example 102]	6
Cc1cc(N2CCC(Oc3ccc(C4CC4)cc3)C2=O)ccc1OCC(C)(C)O (stereo not drawn) [Example 82]	11
Cc1cc(N2CC[C@H](Oc3ccc(OC(F)(F)F)cc3)C2=O)ccc1OCC(C)(C)O [Example 78]	6000
